# Measured values: ChEMBL document CHEMBL5241104, “Reactive metabolites of the anticonvulsant drugs and approaches to minimize the adverse drug reaction” (Eur J Med Chem, 2021)
# Experiments:
# [1] = Toxicity in Swiss albino mouse assessed as median toxicity dose at ip administration; format: organism-based; settings: in vivo
# [2] = system: Mus musculus; assay: Anticonvulsant activity in Swiss albino mouse brain assessed as increase in GABA level at 30 mg/kg,ip measured after 7 days of post-administration by spectrophotometric method; format: functional; settings: time 7 day
# [3] = system: Mus musculus; assay: Anticonvulsant activity in Swiss albino mouse assessed as protection against maximal electroshock induced seizure at ip administration; format: functional
# [4] = system: Mus musculus; assay: Anticonvulsant activity in Swiss albino mouse brain assessed as increase in GABA level at 30 mg/kg,ip measured after 2 hrs of post-administration by spectrophotometric method; format: functional
# [5] = system: Mus musculus; assay: Anticonvulsant activity in Swiss albino mouse assessed as protection against Sc-PTZ induced seizure at ip administration; format: functional
# [6] = system: Mus musculus; assay: Anticonvulsant activity in mouse assessed as protection against maximal electroshock induced seizure at ip administration for 5 mins; format: functional
# [7] = system: Mus musculus; assay: Anticonvulsant activity in Swiss mouse assessed as protection against Sc-PTZ induced seizure at ip administration; format: functional
# [8] = system: Mus musculus; assay: Anticonvulsant activity in Albino mouse brain assessed as increase in GABA level at 30 to 300 mg/kg,ip by spectrophotometric method; format: functional; settings: dose 30-300 mg/kg
# [9] = Protective index, ratio of TD50 for toxicity in Wistar rat assessed as median toxicity dose at po administration by rotorod test to ED50 for anticonvulsant activity in Wistar rat assessed as protection against maximal electroshock induced seizure at po administration; format: organism-based; settings: in vivo, read-out: Ratio TD50/ED50
# [10] = species: Rattus norvegicus; assay: Inhibition of sodium uptake in rat cerebral cortical synaptosomes at 300 uM incubated for 30 mins by scintillation counting analysis; format: functional; settings: Cerebral cortex, Synaptosome
# [11] = species: Rattus norvegicus; assay: Inhibition of sodium uptake in rat cerebral cortical synaptosomes at 30 uM incubated for 30 mins by scintillation counting analysis; format: functional; settings: Cerebral cortex, Synaptosome
# [12] = Displacement of 3[H]BTX from rat cerebral cortical synaptosomes voltage-sensitive sodium channel incubated for 1.5 hrs by scintillation counting analysis; format: subcellular, Cerebral cortex, Synaptosome
# [13] = system: Rattus norvegicus; assay: Anticonvulsant activity in Wistar rat assessed as protection against maximal electroshock induced seizure by measuring median effective dose at po administration; format: functional
# [14] = system: Rattus norvegicus; assay: Anticonvulsant activity in Wistar rat assessed as protection against maximal electroshock induced seizure at po administration; format: functional
# [15] = species: Rattus norvegicus; assay: Inhibition of sodium uptake in rat cerebral cortical synaptosomes at 100 uM incubated for 30 mins by scintillation counting analysis; format: functional; settings: Cerebral cortex, Synaptosome
# [16] = Protective index, ratio of TD50 for toxicity in Albino mouse assessed as median neurotoxicity dose at ip administration by rotorod test to ED50 for anticonvulsant activity in Albino mouse assessed as protection against maximal electroshock induced seizure at ip administration; format: organism-based; settings: in vivo, read-out: Ratio TD50/ED50
# [17] = system: Mus musculus; assay: Anticonvulsant activity in Albino mouse assessed as protection against Sc-PTZ induced seizure at ip administration; format: functional
# [18] = system: Mus musculus; assay: Anticonvulsant activity in Albino mouse assessed as protection against maximal electroshock induced seizure at ip administration; format: functional
# [19] = Protective index, ratio of TD50 for toxicity in Albino mouse assessed as median neurotoxicity dose at ip administration by rotorod test to ED50 for anticonvulsant activity in Albino mouse assessed as protection against Sc-PTZ induced seizure at ip administration; format: organism-based; settings: in vivo, read-out: Ratio TD50/ED50
# [20] = system: Mus musculus; assay: Anticonvulsant activity in mouse assessed as inhibition of maximal electroshock induced seizure at 200 mg/kg,po administration for 120 mins; format: functional; settings: 2 h
# [21] = system: Mus musculus; assay: Anticonvulsant activity in Swiss albino mouse assessed as inhibition of maximal electroshock induced seizure at ip administration; format: functional
# [22] = system: Mus musculus; assay: Anticonvulsant activity against bicuculline induced Swiss mouse seizure model assessed as inhibition of clonic seizures at 50 mg/kg,ip administration for 30 mins; format: functional; settings: 0.5 h
# [23] = system: Mus musculus; assay: Anticonvulsant activity against bicuculline induced Swiss mouse seizure model assessed as inhibition of tonic seizures at 50 mg/kg,ip administration for 30 mins; format: functional; settings: 0.5 h
# [24] = Toxicity in 3-MP induced Swiss mouse seizure model assessed as death at 50 mg/kg,ip administration for 30 mins; format: organism-based; settings: in vivo, read-out: Activity
# [25] = system: Mus musculus; assay: Anticonvulsant activity against 3-MP induced Swiss mouse seizure model assessed as inhibition of clonic seizures at 50 mg/kg,ip administration for 30 mins; format: functional; settings: 0.5 h
# [26] = Toxicity in bicuculline induced Swiss mouse seizure model assessed as death at 50 mg/kg,ip administration for 30 mins; format: organism-based; settings: in vivo, read-out: Activity
# [27] = system: Mus musculus; assay: Anticonvulsant activity against 3-MP induced Swiss mouse seizure model assessed as inhibition of tonic seizures at 50 mg/kg,ip administration for 30 mins; format: functional; settings: 0.5 h
# [28] = system: Mus musculus; assay: Anticonvulsant activity in Swiss albino mouse assessed as protection against Sc-PTZ induced seizure at po administration; format: functional
# [29] = Toxicity in Swiss CD-1 mouse assessed as mortality at 100 mg/kg,ip; format: organism-based; settings: in vivo
# [30] = system: Rattus norvegicus; assay: Anticonvulsant activity in Wistar rat assessed as protection against maximal electroshock induced seizure at po administration for 60 mins; format: functional; settings: 1 h
# [31] = system: Rattus norvegicus; assay: Anticonvulsant activity against maximal electroshock induced seizure in Wistar rat assessed as reduction of time spent in extension phase at 50 mg/kg,po administration; format: functional
# [32] = Protective index, ratio of TD50 for toxicity in Sc-PTZ induced Swiss albino mouse seizure model assessed as median neurotoxicity dose at po administration by rotorod test to ED50 for anticonvulsant activity in Swiss albino mouse assessed as protection against Sc-PTZ induced seizure at po administration; format: organism-based; settings: in vivo, read-out: Ratio TD50/ED50
# [33] = system: Rattus norvegicus; assay: Anticonvulsant activity against maximal electroshock induced seizure in Wistar albino rat assessed as reduction of time spent in stupor phase at 10 mg/kg,ip administrated for 30 mins by electroconvulsive therapy; format: functional; set-up: scale not given: the % may be the effect or the level left; settings: 0.5 h
# [34] = system: Rattus norvegicus; assay: Anticonvulsant activity against maximal electroshock induced seizure in Wistar albino rat assessed as reduction of time spent in clonus phase at 10 mg/kg,ip administrated for 30 mins by electroconvulsive therapy; format: functional; set-up: scale not given: the % may be the effect or the level left; settings: 0.5 h
# [35] = system: Rattus norvegicus; assay: Anticonvulsant activity against maximal electroshock induced seizure in Wistar albino rat assessed as reduction of time spent in flexion phase at 10 mg/kg,ip administrated for 30 mins by electroconvulsive therapy; format: functional; set-up: scale not given: the % may be the effect or the level left; settings: 0.5 h
# [36] = system: Rattus norvegicus; assay: Anticonvulsant activity against maximal electroshock induced seizure in Wistar albino rat assessed as reduction of time spent in extension phase at 10 mg/kg,ip administrated for 30 mins by electroconvulsive therapy; format: functional; set-up: scale not given: the % may be the effect or the level left; settings: 0.5 h
# [37] = Toxicity in Swiss albino mouse assessed as lethality at 30 mg/kg,ip; format: organism-based; settings: in vivo, read-out: Activity
structure (smiles),measurement,setting,value
COc1cc(C2CC(c3ccc(O)cc3)=NC(=S)N2C2=NC(=O)NNC2)ccc1O (centres undefined),TD50,[1],412 mg/kg
same,Activity,[2],91.47 µg
same,ED50,[3],29.4 mg/kg
same,Activity,[4],86.17 µg
same,ED50,[5],293 mg/kg
O=C(NC1CCCCC1)C(c1ccc(F)cc1)N1Cc2cnnn2-c2ccccc2C1=O (centres undefined),Activity,[6],87.5%
O=C1NC(=O)C(c2ccccc2)(c2ccccc2)N1 [PHENYTOIN],ED50,[7],> 300 mg/kg
CN1C(=O)CC(=O)N(c2ccccc2)c2cc(Cl)ccc21 [CLOBAZAM],Activity,[8],54.9 mg
CCCC(CCC)C(=O)N/N=C/c1ccncc1,TD50,[1],346 mg/kg
CC(=O)O[C@@H]1Cc2ccccc2N(C(N)=O)c2ccccc21,selectivity ratio,[9],> 91.7
same,inhibition,[10],73.2%
same,inhibition,[11],17.9%
same,IC50,[12],141 µM
same,ED50,[13],4.7 mg/kg
same,Activity,[14],5.9%
same,inhibition,[15],57.7%
CN(C)c1ccc(/C=N/Nc2nnc(-c3ccccc3)nc2Cc2ccc(Cl)cc2)cc1,selectivity ratio,[16],7.82
same,ED50,[17],83.9 mg/kg
same,ED50,[18],46 mg/kg
same,selectivity ratio,[19],4.29
same,Activity,[8],37.3 mg
CNS(=O)(=O)OC[C@]12OC[C@@H]3OC(C)(C)O[C@@H]3C1OC(C)(C)O2 (some centres undefined),inhibition in vivo at 200 mg/kg,[20],≥ 80%
O=C1N=C(N2C(=S)N=C(c3ccc(F)cc3)CC2c2ccc(O)cc2)CNN1 (centres undefined),TD50,[1],389 mg/kg
same,Activity,[2],78.96 µg
same,ED50,[3],22.5 mg/kg
same,Activity,[4],77.42 µg
same,ED50,[5],285 mg/kg
COc1ccccc1/C=C1/N=C(c2ccccc2)c2cc([N+](=O)[O-])ccc2NC1=O,inhibition (INH),[21],69%
NC(=O)N1c2ccccc2C=Cc2ccccc21 [CARBAMAZEPINE],inhibition in vivo at 50 mg/kg,[22],100%
same,inhibition in vivo at 50 mg/kg,[23],0%
same,ED50,[7],> 100 mg/kg
same,mortality at 0.5 h,[24],90%
same,inhibition in vivo at 50 mg/kg,[25],80%
same,mortality at 0.5 h,[26],40%
same,inhibition in vivo at 50 mg/kg,[27],0%
CCC(=O)CCCCCN1C(=O)NC2(C1=O)c1ccccc1-c1ccccc12,Activity,[28],100%
O=C(O)CCCCCn1c(-c2ccccc2)nc(-c2ccccc2)c1-c1ccccc1,Activity,[28],100%
O=C1CCCN1CC(O)CN1CCN(c2ccccc2O)CC1 (centres undefined),mortality,[29],14.2%
O=[N+]([O-])c1ccc(C2CC(c3ccc(Cl)cc3)=Nc3ccccc3N2)cc1 (centres undefined),Activity,[30],56%
same,Time,[31],7.25 s
C=CCC(CC(C)C)C(=O)O (racemic),selectivity ratio,[32],3.2
CN(C)c1ccc(/C=N/Nc2nnc(-c3ccccc3)nc2Cc2cccc(Cl)c2)cc1,selectivity ratio,[16],8.01
same,ED50,[17],92 mg/kg
same,ED50,[18],54.3 mg/kg
same,selectivity ratio,[19],4.73
same,Activity,[8],39.7 mg
CCCC(CCC)C(=O)[O-].[Na+] [VALPROATE SODIUM],ED50,[7],149 mg/kg
same,Activity,[28],83%
CCN(CC)CN1C(=O)/C(=N\c2nnc(-c3cccc(Cl)c3Cl)c(/N=C3\C(=O)N(CN(CC)CC)c4ccc(Cl)cc43)n2)c2cc(Cl)ccc21,Activity,[33],30.21%
same,Activity,[34],39.4%
same,Activity,[35],29.31%
same,Activity,[36],47.87%
COc1cc(/C=C2/N=C(c3ccccc3)c3cc([N+](=O)[O-])ccc3NC2=O)ccc1O,inhibition (INH),[21],71%
O=C1Nc2ccccc2C12Nc1ccccc1-c1nc(=O)c(-c3ccccc3)nn12 (centres undefined),mortality,[37],30%
